According to patent US8637511B2, “Aminopyrimidines useful as kinase inhibitors” (Vertex Pharmaceuticals Incorporated, priority 2005, dated 2014):
Where two headings read alike, the source gives them in different places.

Legend:
FLT-3 = biological target: T1, FLT-3 (Homo sapiens, UniProt P36888); assay: FLT-3 inhibition assay, radiometric filter-binding; assay type: biochemical
T1 sequence (P36888 27-993): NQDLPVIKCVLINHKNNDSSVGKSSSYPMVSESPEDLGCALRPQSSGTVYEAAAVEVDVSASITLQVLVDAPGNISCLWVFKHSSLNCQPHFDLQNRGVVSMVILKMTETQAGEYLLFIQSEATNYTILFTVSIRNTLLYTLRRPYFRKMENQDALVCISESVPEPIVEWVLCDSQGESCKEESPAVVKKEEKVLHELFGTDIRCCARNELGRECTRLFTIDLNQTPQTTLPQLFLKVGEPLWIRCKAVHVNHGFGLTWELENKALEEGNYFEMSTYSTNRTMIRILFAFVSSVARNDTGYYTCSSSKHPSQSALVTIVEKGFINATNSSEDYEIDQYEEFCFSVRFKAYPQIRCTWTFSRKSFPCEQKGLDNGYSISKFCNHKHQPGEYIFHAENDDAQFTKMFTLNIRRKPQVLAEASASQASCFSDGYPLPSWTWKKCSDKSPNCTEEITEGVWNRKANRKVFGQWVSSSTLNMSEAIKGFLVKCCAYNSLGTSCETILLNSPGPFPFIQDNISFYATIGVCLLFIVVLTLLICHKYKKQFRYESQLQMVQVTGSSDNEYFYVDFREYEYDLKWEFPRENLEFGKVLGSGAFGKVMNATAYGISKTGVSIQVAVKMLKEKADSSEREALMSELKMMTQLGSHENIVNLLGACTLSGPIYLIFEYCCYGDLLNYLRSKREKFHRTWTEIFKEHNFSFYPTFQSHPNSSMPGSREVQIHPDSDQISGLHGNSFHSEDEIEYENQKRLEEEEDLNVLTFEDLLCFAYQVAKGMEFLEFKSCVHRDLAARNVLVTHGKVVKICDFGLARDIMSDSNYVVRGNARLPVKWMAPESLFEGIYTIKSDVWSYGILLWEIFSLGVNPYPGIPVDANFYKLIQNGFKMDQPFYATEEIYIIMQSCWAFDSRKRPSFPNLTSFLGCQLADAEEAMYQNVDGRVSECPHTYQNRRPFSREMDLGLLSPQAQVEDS

Aurora-2 (Aurora A) = biological target: T2, Aurora-2 (Aurora A) (Homo sapiens, UniProt O14965); assay: Aurora-2 (Aurora A) inhibition assay, coupled enzyme; assay type: biochemical
T2 sequence (O14965 1-403): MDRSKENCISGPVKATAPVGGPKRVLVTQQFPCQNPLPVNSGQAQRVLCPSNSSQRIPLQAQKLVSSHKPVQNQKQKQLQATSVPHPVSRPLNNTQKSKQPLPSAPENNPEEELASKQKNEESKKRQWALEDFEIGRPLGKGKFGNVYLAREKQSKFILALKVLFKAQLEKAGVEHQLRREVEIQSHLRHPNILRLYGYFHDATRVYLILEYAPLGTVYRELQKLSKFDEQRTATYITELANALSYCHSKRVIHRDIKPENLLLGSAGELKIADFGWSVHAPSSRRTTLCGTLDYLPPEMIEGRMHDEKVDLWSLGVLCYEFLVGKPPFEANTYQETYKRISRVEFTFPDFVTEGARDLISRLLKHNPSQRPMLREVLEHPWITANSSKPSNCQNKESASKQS
In short: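 These rates came from NADH consumption coupled through pyruvate kinase and lactate dehydrogenase (100 mM Hepes pH 7.5, 10 mM MgCl2, 300 μM NADH). Aurora-2 was present at 40 nM, and the reaction ran at 30 °C after a 10 min preincubation.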

[1] = read-out: Aurora A kinase Ki value

SMILES	Ki (FLT-3) [nM]	Ki (Aurora-2 (Aurora A); [1]) [nM]	Ki (FLT-3; read-out: FLT-3 Ki value) [nM]	Ki (Aurora-2 (Aurora A)) [nM]
Cc1ccc2cc(Sc3nc(Nc4cc(C)[nH]n4)cc(N4CC(N5CCCC5)C4)n3)ccc2n1 [Compound 182]	50 to 150	1 to 5	–	–
Cc1cc(Nc2cc(N3CCC3)nc(Sc3ccc(NS(C)(=O)=O)cc3)n2)[nH]n1 [Compound 150]	–	5 to 200	≤ 50	–
Cc1cc(Nc2cc(N3CCC3)nc(Sc3ccc(NC(=O)c4nccn4C)cc3)n2)n[nH]1 [Compound 166]	150 to 1000	5 to 200	–	–
CC1=NN=C(Nc2cc(N3CCC3)nc(Sc3ccc(NC(=O)c4cccc(C(F)(F)F)c4F)cc3)n2)C1 [Compound 55]	150 to 1000	–	–	≤ 1
Cc1ccc2cc(Sc3nc(Nc4cc(C)[nH]n4)cc(N4CC(C5CCC(F)C5)C4)n3)ccc2n1 (stereo not drawn) [Compound 198]	50 to 150	1 to 5	–	–
CCC(=O)Nc1ccc(Sc2nc(Nc3cc(C)[nH]n3)cc(N3CC(O)C3)n2)cc1 [Compound 15]	50 to 150	–	–	1 to 5
Cc1cc(Nc2cc(N3CCC3)nc(Sc3ccc4ccccc4c3)n2)n[nH]1 [Compound 25]	≤ 50	1 to 5	–	–
Cc1cc(Nc2cc(N3CC(F)(C4CC4)C3)nc(Sc3ccc(N)cc3)n2)[nH]n1 [Compound 209]	≤ 50	5 to 200	–	–
CCC(=O)Nc1ccc(Sc2nc(Nc3cc(C)n[nH]3)cc(N3CC(O)(C(F)(F)F)C3)n2)cc1 [Compound 94]	≤ 50	1 to 5	–	–
Cc1cc(Nc2cc(N3CC(OC(C)(C)C)C3)nc(Sc3ccc(NC(=O)c4ccccc4Cl)cc3)n2)[nH]n1 [Compound 66]	150 to 1000	–	–	≤ 1
Cc1cc(Nc2cc(N3CCC3)nc(Sc3ccc(NC(=O)c4ccc(Cl)cc4Cl)cc3)n2)n[nH]1 [Compound 162]	150 to 1000	–	–	≤ 1
CCC(=O)Nc1ccc(Sc2nc(Nc3cc(C)[nH]n3)cc(N3CCC3)n2)cc1 [Compound 14]	–	1 to 5	50 to 150	–
Cc1cc(Nc2cc(N3CC(F)(C4CC4)C3)nc(Sc3ccc4nc(C(F)(F)F)[nH]c4c3)n2)[nH]n1 [Compound 202]	≤ 50	1 to 5	–	–
Cc1ccc(C(=O)Nc2ccc(Sc3nc(Nc4cc(C)n[nH]4)cc(N4CCC4)n3)cc2)cn1 [Compound 145]	–	5 to 200	150 to 1000	–
Cc1cc(Nc2cc(N3CCC3)nc(Sc3ccc(C(=O)Nc4ccccc4Cl)cc3)n2)[nH]n1 [Compound 48]	150 to 1000	1 to 5	–	–
Cc1cc(Nc2cc(N3CC(N4CCOCC4)C3)nc(Sc3ccc(NC(=O)CC(F)(F)F)cc3)n2)[nH]n1 [Compound 199]	≤ 50	≤ 1	–	–
CCC(=O)Nc1ccc(Sc2nc(Nc3cc(C)n[nH]3)cc(N3CC(C)(C#N)C3)n2)cc1 [Compound 79]	–	1 to 5	≤ 50	–
Cc1cc(Nc2cc(N3CCC3)nc(Sc3ccc(NC(=O)c4ccncc4C(F)(F)F)cc3)n2)[nH]n1 [Compound 146]	150 to 1000	≤ 1	–	–

SMILES	Ki (FLT-3) [nM]	Ki (Aurora-2 (Aurora A); [1]) [nM]	Ki (FLT-3; read-out: FLT-3 Ki value) [nM]	Ki (Aurora-2 (Aurora A)) [nM]
Cc1cc(Nc2cc(N3CC(C#N)C3)nc(Sc3ccc(NC(=O)c4ccccc4Cl)cc3)n2)n[nH]1 [Compound 16]	50 to 150	≤ 1	–	–
Cc1cc(Nc2cc(N3CCC3)nc(Sc3ccc(NC(=O)C(C)(C)C)cc3)n2)[nH]n1 [Compound 114]	–	1 to 5	150 to 1000	–
O=C(CC(F)(F)F)Nc1ccc(Sc2nc(Nc3cc[nH]n3)cc(N3CC(F)(C4CC4)C3)n2)cc1 [Compound 148]	50 to 150	1 to 5	–	–
CC1=NN=C(Nc2cc(N3CCC3)nc(Sc3ccc(NC(=O)c4ccccc4)cc3)n2)C1 [Compound 52]	–	5 to 200	150 to 1000	–
CCC(=O)Nc1ccc(Sc2nc(Nc3cc(C4CC4)n[nH]3)cc(N3CC(N4CCOCC4)C3)n2)cc1 [Compound 78]	≤ 50	≤ 1	–	–
Cc1cc(Nc2cc(N3CCC3)nc(Sc3ccc(NC(=O)c4ccc(CN(C)C)cc4)cc3)n2)[nH]n1 [Compound 137]	–	5 to 200	50 to 150	–
Cc1cc(Nc2cc(N3CC(N4CCOCC4)C3)nc(Sc3ccc(NC(=O)C4(C(F)(F)F)CC4)cc3)n2)[nH]n1 [Compound 191]	–	≤ 1	150 to 1000	–
Cc1cc(Nc2cc(N3CCC3)nc(Sc3ccc(C(=O)NCc4ccccc4)cc3)n2)n[nH]1 [Compound 19]	150 to 1000	–	–	5 to 200
Cc1cc(Nc2cc(N3CCC3)nc(Sc3ccc(C(=O)NCc4ccccc4Cl)cc3)n2)n[nH]1 [Compound 24]	150 to 1000	–	–	5 to 200
COC1CN(c2cc(Nc3cc(C)[nH]n3)nc(Sc3ccc(NC(=O)c4ccccc4Cl)cc3)n2)C1 [Compound 12]	50 to 150	–	–	≤ 1
Cc1cnc(Nc2cc(N3CC(N)C3)nc(Sc3ccc(NC(=O)C4CC4)cc3)n2)s1 [Compound 2]	≤ 50	5 to 200	–	–
Cc1cc(Nc2cc(N3CCC3)nc(Sc3ccc(NC(=O)c4cc(C)nc(Cl)c4)cc3)n2)[nH]n1 [Compound 149]	–	1 to 5	150 to 1000	–
CC1=NN=C(Nc2cc(N3CCC3)nc(Sc3ccc(NC(=O)c4ccccc4Cl)cc3)n2)C1 [Compound 5]	–	≤ 1	50 to 150	–
Cc1cc(Nc2cc(N3CCC3)nc(Sc3ccc(NC(=O)OC(C)(C)C)cc3)n2)n[nH]1 [Compound 26]	50 to 150	5 to 200	–	–
Cc1cc(Nc2cc(N3CCC3)nc(Sc3ccc(NC(=O)CC(F)(F)F)cc3)n2)n[nH]1 [Compound 40]	50 to 150	≤ 1	–	–
Cc1cc(Nc2cc(N3CCC3)nc(Sc3ccc(NC(=O)C4CC4)cc3)n2)n[nH]1 [Compound 17]	–	1 to 5	50 to 150	–
CC1=NN=C(Nc2cc(N3CCC3)nc(Sc3ccc(NC(=O)c4cccc(Cl)c4F)cc3)n2)C1 [Compound 61]	150 to 1000	≤ 1	–	–
CC(=O)Nc1cccc(Sc2nc(Nc3cc(C)n[nH]3)cc(N3CC(F)(C4CC4)C3)n2)c1 [Compound 188]	50 to 150	5 to 200	–	–
